Reference: patent publication US20110301122A1, “HETEROAROMATIC COMPOUNDS FOR USE AS HIF INHIBITORS” (BAYER SCHERING PHARMA AKTIENGESELLSCHAFT, priority 2008, published 2011)

The compounds below were run on luciferase reporter under the control of an HIF-responsive sequence in HCT 116 cells (assay: HIF-luciferase assay). Conditions: Homo sapiens; HCT 116 cells stably transfected with HIF-responsive luciferase reporter; hypoxia chamber (1% O2), 24 h; luminescence (Bright Glo).
Type: cell-based
Protocol: HCT 116 cells were transfected in a stable manner with a plasmid which contained a luciferase reporter under the control of an HIF-responsive sequence. These cells were sown in microtitre plates [20,000 cells/cavity in RPMI 1640 medium with 10% foetal calf serum (FCS) and 100 μg/ml of hygromycin]. Incubation was carried out overnight under standard conditions (5% CO2, 21% O2, 37° C., moistened). The following morning the cells were incubated with various concentrations of the test substances (0-10 μmol/l) in a hypoxia chamber (1% O2). After 24 h, Bright Glo reagent (Promega, Wisconsin, USA) was added in accordance with the manufacturer'/s instructions, and after 5 min the luminescence was measured. Cells which were incubated under normoxia served as background controls.

IC50 [nM] | SMILES
1 | CNc1ccc(Cn2nc(-c3nc(-c4ccc(S(=N)(=O)C(F)(F)F)cc4)no3)cc2C)cn1 (racemic) [Example 188, N-Methyl-5-{[5-methyl-3-(3-{4-[S-(trifluoromethyl)sulphonimidoyl]phenyl}-1,2,4-oxadiazol-5-yl)-1H-pyrazol-1-yl]methyl}pyridin-2-amine]
1 | CNc1ccc(Cn2nc(-c3nc(-c4ccc(OC(F)(F)F)cc4)no3)cc2C)cn1 [Example 24, N-Methyl-5-[(5-methyl-3-{3-[4-(trifluoromethoxy)phenyl]-1,2,4-oxadiazol-5-yl}-1H-pyrazol-1-yl)methyl]pyridin-2-amine]
0.4 | CNc1ccc(Cn2nc(-c3nc(-c4ccc(C(C)(C)C(F)(F)F)cc4)no3)cc2C)cn1 [Example 121]
1.5 | CNc1ccc(Cn2nc(-c3nc(-c4ccc(C5(F)CCC5)cc4)no3)cc2C)cn1 [Example 133]
2 | CNc1ccc(Cn2nc(-c3nc(-c4ccc(C5(OC)CCC5)cc4)no3)cc2C)cn1 [Example 134]
2 | CNc1ccc(Cn2nc(-c3nc(-c4ccc(C5CCOCC5)cc4)no3)cc2C)cn1 [Example 166, N-Methyl-5-[(5-methyl-3-{3-[4-(tetrahydro-2H-pyran-4-yl)phenyl]-1,2,4-oxadiazol-5-yl}-1H-pyrazol-1-yl)methyl]pyridin-2-amine]
0.3 | CNc1ccc(Cn2nc(-c3nc(-c4ccc(C(C)(C)C)cc4)no3)cc2C)cn1 [Example 170, 5-({3-[3-(4-tert-Butylphenyl)-1,2,4-oxadiazol-5-yl]-5-methyl-1H-pyrazol-1-yl}methyl)-N-methyl-pyridin-2-amine]
0.4 | CNc1ccc(Cn2nc(-c3nc(-c4ccc(C5(COC)CCC5)cc4)no3)cc2C)cn1 [Example 171, 5-{[3-(3-{4-[1-(Methoxymethyl)cyclobutyl]phenyl}-1,2,4-oxadiazol-5-yl)-5-methyl-1H-pyrazol-1-yl]methyl}-N-methylpyridin-2-amine]
0.6 | CNc1ccc(Cn2nc(-c3nc(-c4ccc(C5(C(F)(F)F)CC5)cc4)no3)cc2C)cn1 [Example 183, N-Methyl-5-{[5-methyl-3-(3-{4-[1-(trifluoromethyl)cyclopropyl]phenyl}-1,2,4-oxadiazol-5-yl)-1H-pyrazol-1-yl]methyl}pyridin-2-amine]

The next lines start with the compound.

SMILES | IC50 [nM]
CN=S(=O)(c1ccc(-c2noc(-c3cc(C)n(Cc4ccc(NC)nc4)n3)n2)cc1)C(F)(F)F (racemic) [Example 187, N-Methyl-5-{[5-methyl-3-(3-{4-[N-methyl-S-(trifluoromethyl)sulphonimidoyl]phenyl}-1,2,4-oxa-diazol-5-yl)-1H-pyrazol-1-yl]methyl}pyridin-2-amine] | 0.6
Cc1cc(-c2nc(-c3ccc(OC(F)(F)F)cc3)no2)nn1Cc1ccc(NCCCO)nc1 [Example 25] | 8
Cc1cc(-c2nc(-c3ccc(OC(F)(F)F)cc3)no2)nn1Cc1ccc(NCCO)nc1 [Example 29] | 10
Cc1cc(-c2nc(-c3ccc(OC(F)(F)F)cc3)no2)nn1Cc1ccnc(N(CCO)CCO)c1 [Example 33] | 30
Cc1cc(-c2nc(-c3ccc(C(C)(C)C)cc3)no2)cn1Cc1ccc(Cl)nc1 [Example 72, 5-({4-[3-(4-tert-Butylphenyl)-1,2,4-oxadiazol-5-yl]-2-methyl-1H-pyrrol-1-yl}methyl)-2-chloro-pyridine] | 10
Cc1ccc(Cn2cc(-c3nc(-c4ccc(S(=O)(=O)C(F)(F)F)cc4)no3)cc2C)cc1 [Example 79] | 4
Cc1ccc(Cn2cc(-c3nc(-c4ccc(C5(F)COC5)cc4)no3)cc2C)cc1 [Example 81] | 10
Cc1ccc(Cc2cc(-c3nc(-c4ccc(C(C)(C)C)cc4)no3)nn2C)cc1 [Example 94] | 20
Cc1cc(-c2nc(-c3ccc(OC(F)(F)F)cc3)no2)cn1Cc1ccc(NCCO)nc1 [Example 100, 2-({5-[(2-Methyl-4-{3-[4-(trifluoromethoxy)phenyl]-1,2,4-oxadiazol-5-yl}-1H-pyrrol-1-yl)-methyl]pyridin-2-yl}amino)ethanol] | 9
Cc1cc(-c2nc(-c3ccc(OC(F)(F)F)cc3)no2)nn1Cc1ccc(N)nc1 [Example 135, 5-[(5-Methyl-3-{3-[4-(trifluoromethoxy)phenyl]-1,2,4-oxadiazol-5-yl}-1H-pyrazol-1-yl)methyl]-pyridin-2-amine] | 4
CNc1ccc(Cn2nc(-c3nc(-c4ccc([Si](C)(C)C)cc4)no3)cc2C)cn1 [Example 178, N-Methyl-5-[(5-methyl-3-{3-[4-(trimethylsilyl)phenyl]-1,2,4-oxadiazol-5-yl}-1H-pyrazol-1-yl)-methyl]pyridin-2-amine] | 0.6
CCNc1ccc(Cn2nc(-c3nc(-c4ccc([Si](C)(C)C)cc4)no3)cc2C)cn1 [Example 180, N-Ethyl-5-[(5-methyl-3-{3-[4-(trimethylsilyl)phenyl]-1,2,4-oxadiazol-5-yl}-1H-pyrazol-1-yl)-methyl]pyridin-2-amine] | 1
CNc1ccc(Cn2nc(-c3nc(-c4ccc(OC(F)(F)F)c(Cl)c4)no3)cc2C)cn1 [Example 181, 5-[(3-{3-[3-Chloro-4-(trifluoromethoxy)phenyl]-1,2,4-oxadiazol-5-yl}-5-methyl-1H-pyrazol-1-yl)-methyl]-N-methylpyridin-2-amine] | 2
CNc1ccc(Cn2nc(-c3nc(-c4ccc(OC(F)(F)F)c(F)c4)no3)cc2C)cn1 [Example 182, 5-[(3-{3-[3-Fluoro-4-(trifluoromethoxy)phenyl]-1,2,4-oxadiazol-5-yl}-5-methyl-1H-pyrazol-1-yl)-methyl]-N-methylpyridin-2-amine] | 2
CNc1ccc(Cn2nc(-c3nc(-c4ccc(CN(C(C)C)C(C)C)cc4)no3)cc2C)cn1 [Example 184, 5-{[3-(3-{4-[(Diisopropylamino)methyl]phenyl}-1,2,4-oxadiazol-5-yl)-5-methyl-1H-pyrazol-1-yl]-methyl}-N-methylpyridin-2-amine] | 2
CNc1ccc(Cn2cc(-c3nc(-c4ccc(C(C)(C)C(F)(F)F)cc4)no3)cc2C)cn1 [Example 196, N-Methyl-5-[(2-methyl-4-{3-[4-(1,1,1-trifluoro-2-methylpropan-2-yl)phenyl]-1,2,4-oxadiazol-5-yl}-1H-pyrrol-1-yl)methyl]pyridin-2-amine] | 0.5
